Earlier results, collected in US20110293714A1, “PHARMACEUTICAL COMPOSITIONS SUITABLE FOR ORAL ADMINISTRATION OF DERIVATIZED INSULIN PEPTIDES” (priority 2008, published 2011).

Details: 293.2 Kelvin; static electric fields or relatively low frequencies

| Structure (SMILES) | Dielectric constant, ∈* |
| --- | --- |
| CC(O)CCO (stereo not shown) [1,3-butanediol] | 28.8 |
| O [Water] | 80.1 |
| CO [Methanol] | 33.0 |
| CC(C)O [Isopropanol] | 20.18 |
| CCO [Ethanol] | 25.3 |
| OCCCO [1,3-propanediol] | 35.1 |

Same assay, conditions: 303.2 Kelvin; static electric fields or relatively low frequencies

| Dielectric constant, ∈* | Structure (SMILES) |
| --- | --- |
| 27.5 | CC(O)CO (stereo not shown) [1,2-propanediol [propylene glycol], 1,2-propanediol] |
